Data: patent US6365604B1, “Antipsychotic substituted piperidine derivatives” (Akzo Nobel NV, priority 1997, dated 2002)
Like-named read-outs stand apart in the source and are kept apart here.

Assays:
[1] = tested on: climbing behaviour in mice, induced by apomorphine; assay: Apomorphine climbing test (ACT) in mice; type: in vivo; conditions: test compound s.c., 0.75 mg/kg apomorphine HCl s.c. after 30 min, climbing scored at 10 and 20 min
Text: The ability of dopamine receptor antagonists to inhibit the behavioural effects in rodents caused by dopamine agonists such as apomorphine is a well established criterion for predicting the antipsychotic efficacy of these drugs in man (see e.g. W. C. Bowman and M. J. Rand, Textbook of Pharmacology, 2nd ed., 1980, 15, 6). A particularly relevant test in this respect is the apomorphine climbing test (ACT) which measures the ability of a dopamine antagonist to inhibit the climbing behaviour in mice, induced by the subcutaneous or oral administration of apomorphine. Activity in this test, following systemic and oral administration, has been widely used as a predictor of antipsychotic activity i.e. anti-schizophrenic activity (see e.g. J. T Strupczewski et.al., J. Med. Chem., 1995, 38, 1119). Mice treated with apomorphine HCl tend to adopt a vertical position along the wall of a wire mesh cylinder, standing or climbing. This climbing behaviour is considered to be elicited by apomorphine-mediated stimulation of dopamine receptors. […] Test compounds which modulate this climbing behaviour may have antipsychotic activity. The various treatments are randomly distributed over the mice. Each experiment consists of 1+n treatment groups: 1 being a control group of 12 mice receiving apomorphine and vehicle subcutaneously or being a control group of 12 mice receiving apomorphine subcutaneously and vehicle orally; n being (usually 4) compound groups of 12 mice receiving apomorphine and test compound subcutaneously or being compound groups of 12 mice receiving apomorphine subcutaneously and test compound orally.
Experiments are performed in 3 runs of 20 mice each. […]
At 10 min after the treatment with apomorphine the climbing behaviour of each mouse is observed and expressed as a score, according to the following grade: […]
At 20 min after the treatment with apomorphine the climbing behaviour is observed and scored again. For each treatment group the mean score per mouse is determined. […] The final result per group is expressed as the percentage over the control group. […]

catalepsy in rats [2] = conditions: rat, in vivo
Procedure: (§1) Male Wistar rats (100-125 g, Olac UK) were used for catalepsy experiments. Catalepsy was assessed as described previously (Broekkamp et al, Naunyn-Schmiedeberg's Arch. Pharmacol. 338, 191 1988). Briefly, rats were tested in 6 different observation trials in which the animals were placed in abnormal postures and scored positively with one point for maintaining the imposed posture for 10 s. The imposed postures were: vertical clinging to a grid, upright standing with a high support for the front paws, extension of hindlegs, placement on back, placement of spatula in the mouth and rotation in a wire mesh cylinder.
(§2) Theoretically a maximum score of 6 can be reached. Catalepsy was assessed at 60 and 120 minutes after drug administration. The data were evaluated by 2 way ANOVAR followed by a Newman Kools post hoc test and ED50 values calculated (Table II).

catalepsy in rats [3] = assay: Catalepsy in rats; conditions: male Wistar rats; catalepsy assessed at 60 and 120 minutes after drug administration
Procedure: as §1, §2

melting point [°C] | Structure (SMILES) | ACT(ED50) [1] [mg/kg] | other results
167.4 | CCc1csc(C(=C2CCN(CCCC(=O)N3CCCC3)CC2)c2ccc(F)cc2)c1.Cl.Cl | – | –
95 to 97 | Cc1csc(C(=C2CCN(CCCNC(=O)c3ccccc3)CC2)c2ccc(F)cc2)c1.Cl | – | –
114 to 116 | Cc1ccc(C(=O)N(C)CCN2CCC(=C(c3ccc(F)cc3)c3cc(C)cs3)CC2)cc1 | – | –
– | Cc1csc(C(=C2CCN(CCCC(=O)N3CCCCC3)CC2)c2ccc(F)cc2)c1.O=C(O)C(=O)O [Compound 2l, 1-[4-[4-[(4-fluorophenyl)(4-methylthien-2-yl)methylene]piperidin-1-yl]-1-oxobutyl]-piperidine (1:1) ethanedicarboxylate] | 0.3 | –
– | Cc1csc(C(=C2CCN(CCCC(=O)N3CCCC3)CC2)c2ccc(F)cc2)c1.Cl.Cl [Compound 2m, 1-[4-[4-[(4-fluorophenyl)(4-methylthien-2-yl)methylene]piperidin-1-yl]-1-oxobutyl]-pyrrolidine.dihydrochloride] | 0.14 | CATR (ED50) (catalepsy in rats [2]): >7 mg/kg
– | Cc1csc(C(=C2CCN(CCCC(=O)N3CCCCC3)CC2)c2cccc(F)c2)c1.Cl [Compound 2n, 1-[4-[4-[(3-fluorophenyl)(4-methylthien-2-yl)methylene]piperidin-1-yl]-1-oxobutyl]-piperidine.hydrochloride] | 0.34 | CATR (ED50) (catalepsy in rats [3]): >17 mg/kg

Structure (SMILES) | melting point [°C] | ACT(ED50) [1] [mg/kg] | other results
Cc1ccc(C(=O)NCCN2CCC(=C(c3ccc(F)cc3)c3cc(C)cs3)CC2)cc1.O=C(O)C(=O)O | 189 to 191 | – | –
Cc1csc(C(=C2CCN(CCNC(=O)C3CC3)CC2)c2ccc(F)cc2)c1.O=C(O)C(=O)O | 98 to 101 | – | –
